Results taken from patent US20090176701A1, “Anti-microbial agents that interact with the complement system” (priority 2005, published 2009).

Key:
Format in all cases: cell-based
E. coli O18:K1:H7 [1] = assay: Bacterial killing assay without blood (growth medium); settings: no blood; for CFU (Range): Table 4, growth medium 6.2
Protocol: Peptides #1, #3 and #4 were tested for their activity without blood on E. coli O18:K1:H7. The peptides were assayed at 3 μM. The same blood and TFPI controls were included as in Experiment I.

E. coli O18:K1:H7 [2] = assay: Bacterial killing assay in 10% blood; set-up: CFU / CFU (Range) / CFU 1 hour / CFU 3 hours / CFU 5 hours / CFU 3 hour: scale not given here; settings: for CFU / CFU 1 hour / CFU 3 hours / CFU 5 hours / activity against O18ac:K1:H7 E. coli strain in blood / bacterial killing activity (effect on bacterial growth): 10% blood; for CFU 1 hour / CFU 3 hours / CFU 5 hours: Table 5, 3000 CFU; for CFU 1 hour: blood 3.4; for CFU 3 hours: blood 4.2; for CFU 5 hours: blood 5.1; for activity against O18ac:K1:H7 E. coli strain in blood: concentrations tested 10 nM to 3 μM, peptide #5 compared to peptide #3; for bacterial killing activity (effect on bacterial growth): FIGS. 1 and 2, TFPI 5 μM, cathepsin G 400 nM; for bacterial survival (outgrowth of bacterial colonies): FIG. 11d, E. coli O18ac:K1:H7 in diluted whole blood
Protocol: TFPI was incubated with α-thrombin, plasmin, elastase and cathepsin G in 10% blood and tested for bacterial killing activity against E. coli O18:K1:H7 as follows. Recombinant TFPI at 5 μM (unless indicated otherwise), was treated with plasmin (100 nM, lane 3) and α-thrombin (100 nM, lane 7; 1 μM, lane 8) (A), elastase (100 nM, lanes 3 and 4) (B), and cathepsin G (100 nM, lane 4; 1 μM, lanes 5, 6 and 7) (C) in a total volume of 180 μl. The reaction contained TFPI diluted in RPMI 1640 without phenol red, 25 mM Hepes, pH 7.5 (RPMI), 3000 CFU E. coli O18:K1:H7 in 40 μl PBS, and diluted enzyme in 20 μl RPMI. The volume was adjusted with RPMI. The samples were pre-incubated for 15-30 minutes before the addition of anti-coagulant-free fresh blood to a final volume of 200 μl. Controls were 10% blood in RPMI, TFPI at 1, 2 and 5 μM, and the enzymes alone at the respective concentrations. The samples were incubated for 4 hours at 37° C. with 5% CO2 in a humidified incubator and serial dilutions plated on Tryptase soy agar plates. The number of bacterial colonies was determined after overnight incubation at 37° C. All experimental conditions are run in duplicate. The data represent the average colony number.
The 18 μl aliquots were diluted to 10 μM TFPI with 445 μl RPMI 1640 without phenolred, 25 mM Hepes, pH 7.5 (RPMI) and assayed at a final concentration of 5 μM in 200 μl reactions containing 3000 CFU E. coli in 40 μl PBS, 10% non-coagulated blood, and adjusted to the final volume with RPMI. Negative controls were 10% blood in RPMI, TFPI at 5 μM and cathepsin G at 400 nM. Anti-coagulant free blood was freshly drawn and added to the reaction as the last component. The samples were manipulated as described above.
Peptides were designed to test for bacterial killing activity localized in the C-terminal domain of TFPI. Activity was measured against Gram negative (E coli O18:K1:H7. ATCC 700973) bacteria in the presence of 10% blood as described above. Controls were RPMI with 10% blood and 100 nM Tifacogin. The biological activity was determined from the reduction of bacterial colonies, as above.
The three peptides #1, #2, & #3 were diluted in H2O to 10 fold their final assay concentration and incubated with bacteria for 4 hours, at the final concentrations of 3 μM, 300 nM 100 nM and 10 nM. E. coli was used at 3000 CFU/200 μl. Surviving colony numbers were determined as described in Example 1. […] Full-length TFPI has no activity against Gram negative bacteria in these assays at the concentrations tested.
Time-dependency: Peptides were incubated with 3000 CFU E. coli O18:K1:H7 at the indicated final concentrations in the presence of 10% blood in three parallel 200 μl reactions as described above. RPMI with 10% blood was used as negative control. After incubation for 1, 3, or 5 hours samples were assayed for the effect on bacterial survival by plating serial dilutions onto agar plates. […] The effect of peptides on bacterial survival increases over the time-span studied.
In these experiments, variable concentrations of E. coli O18:K1:H7 (3×10^3, 3×10^4 or 3×10^5 CFU/200 μl) were challenged with either 3 μM or 100 nM peptide #3 in RPMI/10% blood, and incubated for 3 or 5 hours before dilution and plating. Briefly, the bacteria were diluted to the indicated CFU in 40 μl PBS, the reactions assembled at a final volume of 200 μl as above, and incubated at 37° C. Serial dilutions of the reactions were plated and the colony number determined after overnight incubation. […] At 5 hours no effect on the high CFU culture was discernable, indicating a titration of the killing activity and the high CFU culture exceeding the capacity.

E. coli O18:K1:H7 [3] = assay: Bacterial killing assay in serum or plasma (complement dependence); settings: FIG. 8D; peptides serially diluted to 300 nM, and 30 nM in serum
IL-6 secretion = assay: IL-6 induction assay in diluted whole blood in the presence of LPS; settings: FIG. 11c; peptide and LPS dose-dependent
Protocol: The ability of TFPI to induce IL-6 secretion in the presence of LPS was tested using TFPI and TFPI analogs, including: (i) TFPI1-161, having just residues 1-161 of TFPI; (ii) TFPI with mutant K1; (iii) TFPI with mutant K2; (iv) TFPI with mutants K1 and K2.
When diluted, freshly drawn whole blood is incubated with LPS derived from the cell wall of Gram-negative bacteria, a cytokine cascade is induced within a few hours.
A peptide consisting of the 22 C-terminal amino acids of TFPI (i.e. SEQ ID NO:3) was tested in an IL-6 assay in the presence of LPS. […] Thus this peptide appears to be able to neutralize the endotoxin activity of LPS.

[4] = Table 1, peptide 300 nM, 3000 CFU/200 μl, 4 hours, blood control 5.1
[5] = Table 1, peptide 3 μM, 3000 CFU/200 μl, 4 hours, blood control 5.1
[6] = Table 4, in blood, peptide 3 μM, blood control 5.1

Molecule: LLGDFFRKSKEKIGKEFKRIVQRIKDFLRNLVPRTES [Peptide #4, reference compound]
- inhibition of bacteria in the absence of blood (E. coli O18:K1:H7 [1]; 3000 nM): full inhibition of bacteria
- CFU (E. coli O18:K1:H7 [2]; [4]): 4.9
- CFU (E. coli O18:K1:H7 [2]; [5]): 1.3
- CFU (Range) (E. coli O18:K1:H7 [2]; [6]): 1.3 (1.3-1.4)
- CFU 1 hour (E. coli O18:K1:H7 [2]; 300 nM): 3.3
- CFU 3 hours (E. coli O18:K1:H7 [2]; 300 nM): 3.9
- CFU 5 hours (E. coli O18:K1:H7 [2]; 300 nM): 3.1
- CFU 1 hour (E. coli O18:K1:H7 [2]; 3 μM): 3.1
- CFU 3 hours (E. coli O18:K1:H7 [2]; 3 μM): 3.4
- CFU 5 hours (E. coli O18:K1:H7 [2]; 3 μM): 1.2

Molecule: GFIQRISKGGLIKTKRKRKKQRVKIAYEEIFVKNM (homo sapiens) [Peptide #5, TFPI aas 242-276]
- activity against O18ac:K1:H7 E. coli strain in blood (E. coli O18:K1:H7 [2]; 4 hours): similar, but slightly reduced
- CFU (E. coli O18:K1:H7 [2]; Table 2, peptide 10 nM, blood control 3.5): 4.1
- CFU (E. coli O18:K1:H7 [2]; Table 2, peptide 100 nM, blood control 3.5): 2.1

Molecule: TFPI: all exogenous TFPI in the examples is the TFPI analog ala-TFPI (SEQ ID NO:2), tifacogin
- CFU (Range) (E. coli O18:K1:H7 [1]; TFPI control): 6.2
- activity against O18ac:K1:H7 E. coli strain in blood (E. coli O18:K1:H7 [2]; 4 hours): no activity
- bacterial killing activity (effect on bacterial growth) (E. coli O18:K1:H7 [2]): did not exhibit a similar activity
- CFU (E. coli O18:K1:H7 [2]; Table 1, TFPI control (100 nM Tifacogin), 3000 CFU/200 μl, 4 hours, blood control 5.1): 5.2
- CFU (Range) (E. coli O18:K1:H7 [2]; Table 4, in blood, TFPI control): 5.2

Molecule: NFQRKEKREVIYKVKTKIKAMR (homo sapiens) [Peptide #2, scrambled control peptide, aas 255-276 scramble, reference compound]
- CFU (E. coli O18:K1:H7 [2]; [4]): 5.3
- CFU (E. coli O18:K1:H7 [2]; [5]): 5.4
- CFU 1 hour (E. coli O18:K1:H7 [2]; 3 μM): 3.4
- CFU 3 hours (E. coli O18:K1:H7 [2]; 3 μM): 4.3
- CFU 5 hours (E. coli O18:K1:H7 [2]; 3 μM): 5.2
- bacterial killing activity in serum (rank) (E. coli O18:K1:H7 [3]): inactive

Molecule: TKRKRKKQRVKIAYEEIFVKNM (homo sapiens) [Peptide #1, TFPI aas 255-276, the 22 C-terminal amino acids of TFPI]
- CFU (Range) (E. coli O18:K1:H7 [1]; peptide 3 μM): 5.6
- activity against O18ac:K1:H7 E. coli strain in blood (E. coli O18:K1:H7 [2]; 4 hours): active
- bacterial survival (outgrowth of bacterial colonies) (E. coli O18:K1:H7 [2]; 300 nM of peptide): killed all bacteria
- bacterial survival (outgrowth of bacterial colonies) (E. coli O18:K1:H7 [2]): dose-dependently reduced bacterial survival
- CFU (E. coli O18:K1:H7 [2]; [4]): 5.2
- CFU (E. coli O18:K1:H7 [2]; [5]): 1.1
- CFU (Range) (E. coli O18:K1:H7 [2]; [6]): 1.1 (0.4-1.2)
- CFU 1 hour (E. coli O18:K1:H7 [2]; 300 nM): 3.4
- CFU 3 hours (E. coli O18:K1:H7 [2]; 300 nM): 4.2
- CFU 5 hours (E. coli O18:K1:H7 [2]; 300 nM): 4.2
- CFU 1 hour (E. coli O18:K1:H7 [2]; 3 μM): 3.4
- CFU 3 hours (E. coli O18:K1:H7 [2]; 3 μM): 1.2
- CFU 5 hours (E. coli O18:K1:H7 [2]; 3 μM): 0.2
- CFU (Range) (E. coli O18:K1:H7 [2]; Table 9, peptide 3 μm, Heparin, 3 U/mL): 5.5
- CFU (Range) (E. coli O18:K1:H7 [2]; Table 9, peptide 3 μm, LMW heparin, 0.3 U/mL): 4.7 (4.5-5.1)
- CFU (Range) (E. coli O18:K1:H7 [2]; Table 9, peptide 3 μm, LMW heparin, 3 U/mL): 5.3
- CFU (Range) (E. coli O18:K1:H7 [2]; Table 9, peptide 3 μm, no heparin, blood alone 4.9): 1.2 (N.D.-1.4)
- bacterial killing activity with un-fractionated heparin (E. coli O18:K1:H7 [2]; peptide 3 μm, un-fractionated heparin at 0.3 U/ml, data not shown): partial loss of bacterial killing activity
- bacterial killing activity in serum (rank) (E. coli O18:K1:H7 [3]): greatly reduced activity
- effect of LPS on cytokine production (IL-6) (IL-6 secretion): completely reversed the effect of LPS on cytokine production

Molecule: Heparin [reference compound]
- CFU (Range) (E. coli O18:K1:H7 [2]; Table 9, blood alone control with Heparin, 3 U/mL, no peptide): 5.4 (5.3-5.4)

B1: Cathepsin G: protease used to digest TFPI, tested alone as negative control at 400 nM (protein, UniProt P08311 21-244, looked up)
Cathepsin G: IIGGRESRPHSRPYMAYLQIQSPAGQSRCGGFLVREDFVLTAAHCWGSNINVTLGAHNIQRRENTQQHITARRAIRHPQYNQRTIQNDIMLLQLSRRVRRNRNVNPVALPRAQEGLRPGTLCTVAGWGRVSMRRGTDTLREVQLRVQRDRQCLRIFGSYDPRRQICVGDRRERKAAFKGDSGGPLLCNNVAHGIVSYGKSSGVPPEVFTRVSSFLPWIRTTMRS
- bacterial killing activity (effect on bacterial growth) (E. coli O18:K1:H7 [2]): did not exhibit a similar activity
